From patent publication US8858952B2, “Methods and materials for generating T cells” (Mayo Foundation for Medical Education and Research, priority 2009, dated 2014)

What was measured:
[1] = test system: CD4 T cells; assay: Proliferation assay of CD4 and CD8 T cells from FR74-immunized mice; type: cell-based; conditions: but not CD8 T cells, from FR74-immunized FVB mice, FIG. 3A
Description: FIG. 3A is a plotting the stimulation indices from a proliferation assay in which CD4 and CD8 T cells from FR74-immunized mice were tested for response to non-specific stimulation (PHA), FR74 polypeptide, or an irrelevant polypeptide (Irrel pep). The stimulation index is the ratio of the thymidine incorporation in the sample with antigen and the controls ample. FIG. 3B is a graph plotting results of an IFN-γELlspot (enzyme-linked immunosorbent spot) analysis of FR74-specific T cell lines stimulated in vitro with dendritic cells (DC) pulsed with either FR74 polypeptide, FRα-overexpressing tumor cell lysate (MMC lysate), or an irrelevant polypeptide antigen (Irrel pep). Each bar is the mean (±s.e.m.) of 3 replicates.
The FR74 polypeptide can activate CD4 T cells in FVB and B6 mice, and it is naturally processed.

[2] = test system: FR74-specific T cells; assay: IFN-γ ELIspot of T cell cultures generated ex vivo with polypeptide-pulsed DC; type: cell-based, FVB/N mice
Description: FIG. 4 is a graph plotting the results an IFN-γ ELIspot analyses of T cell cultures incubated with the indicated polypeptides. Epitope nesting greatly augments the numbers of antigen-specific T cells. T cells were tested in ELIspot against native FR74 polypeptide at various concentrations. Each data point is the mean of 3 determinations.
FIG. 6. FR74-specific T cells generated with modified polypeptides recognized tumor lysates. […] Each bar is the mean (±s.e.m.) of 3 replicates.
FIG. 7. […] The T cells were generated at varying concentrations of polypeptides (x-axis). Each point is the mean (±s.e.m.) of 3 replicates.
In terms of proliferation, only the dual modified polypeptide was able to generate T cells that were able to proliferate at 10^−9 g/mL (FIG. 5).
In order to determine whether furin cleavage is required, two methods are used: furin insensitive linkers and furin inhibitors. Blockade of enhanced ex vivo expansion mediated by the DC3 peptide using these two methods is powerful evidence, outside of a furin knockout mouse, that furin is required for the actions of DC3. Although it has already been shown that DC3 must be linked to antigen, as a control T cells are expanded using free FR74 mixed with free DC3. To test the role of furin with furin-insensitive linkers, RARR (SEQ ID NO:4) is replaced with VRVV (SEQ ID NO:41) with the polypeptides FR74.1, FR74.3, and FR74.8 as shown in FIG. 17. In parallel with these cultures, cultures are included in which inhibitors are included. The stoichiometric peptidyl inhibitor decanoyl-Arg-Val-Lys-Arg-CH2CL (SEQ ID NO:42) and α1-antitrypsin Portland, which are the two most commonly used inhibitors, are employed. […] Cultures are examined over a range of concentrations of inhibitors and assayed as described with ELIspot and proliferation assays. To generate Th cells, CD4^+ T cells are purified by incubation of splenocytes with anti-CD4^+ MACS microbeads (Miltenyi, Auburn, Calif.) for 20 minutes at 4° C., followed by positive selection of CD4^+ T cells using an AutoMACS automatic magnetic cell sorter according to the manufacturer's specifications. Th cell lines are established with bone marrow derived DC at a concentration of 5×10^4 T cells/mL in 24-well tissue culture-treated plates in complete medium on day 0. To derive the dendritic cells (DCs), bone marrow is harvested from the long bones of FVB/N mice and seeded in 6-well plates (3×10^6/well) in complete media with murine GM-CSF (10 ng/mL) and IL-4 (1 ng/mL). Media and cytokines are replaced after 3 days. On day 5, CPG is added to the cultures at 1 μg/mL, and the cells are ready for T cell induction on day 6. The tissue culture-generated DC are pulsed with 10 μg/mL FR74 peptide or its modifications and 10 μg/mL B7DC-crosslinking antibody at 37° C. for 4 hours. In these experiments, constant mass is maintained. Next, the peptide-loaded DC are washed with media, and the CD4+ T cells are added, and on days 8 and 10, IL-2 (50 U/mL) is added. On day 15, cells are assayed. For the ELIspot analysis, anti-IFN-γ (Pharmingen) antibody is added to a 96-well nitrocellulose-backed plate (NC-plate, Millipore) at 50 μL/well at a concentration of 10 μg/mL in PBS and incubated overnight at 4° C. The day of analysis, the NC-plate is washed with PBS and blocked for 1-2 hours at 37° C. with PBS/2%BSA. After blocking, the plate are again washed. The Th cells are transferred to the antibody-coated plates. Syngeneic naïve CD4 T cells alone without peptide antigen are used as the negative control. Th cells are seeded at 5×10^4 cells/well with a range of native (i.e., FR74) peptide, irrelevant peptide, FRαMMC tumor lysate, irrelevant tumor lysate, media or concanavalin A. Irradiated syngeneic splenocytes are added at 1 ×10^5 cells/well as antigen-presenting cells. The plate is incubated at 37° C. for 24 hours. The plate are washed with PBS/0.05% Tween-20, and 100 μL/well biotinylated anti-IFN-γ(5 μg/mL, Pharmingen) antibody are added to each well. […]

[3] = Immunogenicity of FR74 used as a vaccine with adjuvant; type: in vivo; conditions: with complete Freund's adjuvant (CFA), CpG, or GM-CSF
Source text: A native helper epitope designated FR74 was a peptide derived from the folate receptor alpha (FRα) (FIG. 2). FRα (also referred to as folate binding protein) is a glycophosphatidyl-anchored membrane glycoprotein that mediates cellular uptake of folate. This polypeptide is over-expressed on many cancers at levels of up to 80-90-fold relative to the levels observed on normal tissues. FRα is an antigen that can be used across strains, which allows one to test various strategies amongst many different I-A and I-E backgrounds. […] FR74 was modified at the amino-terminus end with an Ii-key and at the carboxy terminus with a DC3 amino acid motif (FIG. 2). To reduce enzymatic degradation in cell culture, the amino terminus of FR74 was acetylated to make FR74.1. FR74.2 is FR74 conjugated to Ii-key. It is attached with a flexible, noncleavable linker FR74.3 is FR74 conjugated to a DC3 polypeptide using a furin sensitive linker to permit cleavage. Furin is an endopeptidase that normally proteolytically activates a large number of proproteins in the cell, and it is predominantly localized to the […] (Thomas, G., Nat. Rev. Mol. Cell Biol., 3(10):753-66 (2002)). FR74.4 is a dual conjugated polypeptide. All modified peptides were acetylated at the amino terminus to prevent degradation.

[4] = biological target: furin (Homo sapiens, UniProt P09958); conditions: cited from earlier work
[5] = test system: Th cells; assay: Cytokine secretion and Th subsets of T cell cultures under varied culture conditions; type: cell-based
Description: FIG. 19. […] Cytokines were measured following stimulation of cells with splenocytes pulsed with either no antigen (open bars) or native FR74 polypeptide. To avoid contamination of cell culture supernatants with splenocyte-derived cytokines, the T cells were purified from the splenocytes prior to incubation to measure cytokines Each bar is the mean (±s.e.m.) of duplicate samples. Results are representative of 2 experiments.
FIG. 20. Manipulation of culture conditions can reduce levels of IL-5 and IL-10 secreting Th cells. Shown are the concentrations of IL-5 and IL-10 within T-cell culture media following simulation of Th cells with or without peptide antigen. Each bar is the mean (±s.e.m.) of duplicate samples.
FIG. 25. Manipulation of culture conditions can reduce levels of IL-5 secreting T cells. Shown are the concentrations of IL-5 within T cell culture media following stimulation of Th cells with or without polypeptide antigen. Each bar is the mean (±s.e.m.) of duplicate samples.
FIG. 26. […] Shown are the concentrations of IL-17 within T cell culture media following simulations of Th cells with or without polypeptide antigen. Each bar is the mean (±s.e.m.) of duplicate samples.
Another item is that Th subset skewing may occur which could cloud interpretations of the polypeptide modifications. […]

furin, sequence (P09958 108-794, species assumed): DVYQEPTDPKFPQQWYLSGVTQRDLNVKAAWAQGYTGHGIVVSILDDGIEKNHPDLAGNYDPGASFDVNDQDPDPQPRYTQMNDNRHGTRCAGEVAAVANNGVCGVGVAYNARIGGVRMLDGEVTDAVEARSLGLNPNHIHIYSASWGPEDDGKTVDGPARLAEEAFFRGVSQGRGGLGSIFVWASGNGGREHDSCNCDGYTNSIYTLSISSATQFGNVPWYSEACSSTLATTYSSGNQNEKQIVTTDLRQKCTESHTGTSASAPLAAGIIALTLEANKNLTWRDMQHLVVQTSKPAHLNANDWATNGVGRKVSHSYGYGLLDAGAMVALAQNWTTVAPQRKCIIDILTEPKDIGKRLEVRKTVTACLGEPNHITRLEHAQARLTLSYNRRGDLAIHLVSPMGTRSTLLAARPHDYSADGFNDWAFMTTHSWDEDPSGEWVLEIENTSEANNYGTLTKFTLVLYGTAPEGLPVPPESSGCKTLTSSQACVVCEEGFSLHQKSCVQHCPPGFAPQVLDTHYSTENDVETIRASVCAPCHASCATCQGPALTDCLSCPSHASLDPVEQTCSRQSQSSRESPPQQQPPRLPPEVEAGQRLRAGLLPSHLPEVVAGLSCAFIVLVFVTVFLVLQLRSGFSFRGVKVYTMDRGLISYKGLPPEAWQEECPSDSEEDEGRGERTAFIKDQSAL

Molecule: KDISYLYRFNWNHCG [FR74]
- proliferation in response to the FR74 polypeptide (stimulation index) [1]: increased proliferation
- recognition of FRα+ tumor lysates (MMC) pulsed onto DC by FR74-specific T cell lines ([2]; IFN-γ ELIspot, FIG. 3B): recognize FRα^+ tumor lysates
- immunogenicity when used to generate T cell lines ([2]; using activated DC): relatively non-immunogenic
- immunogenicity as a vaccine [3]: highly immunogenic

Molecule: decanoyl-Arg-Val-Lys-Arg-CH2CL
- selectivity for furin [4]: not selective

Molecule: α1-antitrypsin
- selectivity for furin [4]: highly selective for furin
- Ki ([4]; furin): 0.6 nM

B1: IFN-γ: cytokine included in T cell culture (protein, UniProt P01579 24-161, looked up)
Interferon gamma: QDPYVKEAENLKKYFNAGHSDVADNGTLFLGILKNWKEESDRKIMQSQIVSFYFKLFKNFKDDQSIQKSVETIKEDMNVKFFNSNKKKRDDFEKLTNYSVTDLNVQRKAIHELIQVMAELSPAAKTGKRKRSQMLFRG
- generation of IL-17-secreting Th cells ([5]; FIG. 26): blocks generation of IL-17-secreting Th cells
- Th2 effectors (IL-5) in FR74.4 cultures ([5]; cells incubated with FR74.4 with DC and IL-2, FIG. 25): completely blocked
